# Patent EP0694547B1, “2-(2-amino-1,6-dihydro-6-oxo-purin-9-yl)methoxy-1,3-propanediol derivatives” (F. Hoffmann-La Roche AG, priority 1994, dated 1996)
# Key:
# [1] = format: physicochemical; conditions: pH 7
# Experimental: Alternatively, the compound of the invention may be prepared using optically active reactants. When pure diastereomers of mono-L-valine ganciclovir are prepared the condensation step (d) is the preferred method of synthesis. However, if optically active reagents are being used it would be important to avoid the pH range above 6, as at the higher pH range interconversion of the free compound of Formula I occurs.
# [2] = Determination of oral absorption (bioavailability) in the rat
# Experimental: The following assay was used to determine the oral absorption (oral bioavailability) of the compound of Formula I (L-monovaline ester of ganciclovir) and of other ganciclovir amino acid esters, other ganciclovir esters and ethers examined for comparative purposes.
# To measure the oral bioavailability of a compound first the plasma level of the compound in male rats was determined after a single oral (po) dose of the compound. […] For ganciclovir the single dose in each case, po and iv, is 10 mg/kg; for a prodrug ester (including the L-monovaline ester of ganciclovir) the single dose in each case, oral and iv, is a dose equimolar to 10 mg/kg of ganciclovir. From the two measurements following po and iv administration, the oral bioavailability of a compound was calculated by dividing the total area under the concentration vs. time curve following p.o. administration by the total area under the concentration vs. time curve following iv administration, appropriately corrected for dose, according to the equation: F(p.o.) (%) = [AUC(p.o.) /AUC(i.v.) ] x [Dose(i.v.) / Dose(p.o.) ] x 100 [formula]
# The dose vehicle for oral and intravenous dosing consisted normal saline containing 2 % acetic acid. In both cases the compound concentration was equivalent to 4.0 mg/ml ganciclovir with a dose rate equivalent to 10 mg/kg (2.5 ml/kg) of ganciclovir. A 200 gm rat received 0.5 ml of the oral drug solution by gavage or via injection into the tail vein.
# The rats were acclimatized to the laboratory environment for three days and fasted overnight before start of the experiment and until 4 hours after dosing. Blood was collected from 4 rats at each of the following times: 0 min (pre-dose), 5 min (iv only), 15 min, 30 min, 1 hr, 2 hr, 3 hr, 5 hr, 7 hr, 10 hr and 24 hr. The blood was immediately centrifuged to obtain the plasma and the plasma frozen at -20 °C until analysis.
# Aliquots of plasma (0.50 ml) were mixed with 0.020 ml of internal standard (acyclovir, 15 µg/ml in 10 % methanol/water) and 3.0 ml of acetonitrile. The mixture was vortexed and the resulting precipitate was removed by centrifugation (4,000 g, 10 min). The supernatant was evaporated to dryness under nitrogen and reconstituted in 200 µl of HPLC mobile phase. Aliquots (0.05 ml) were analyzed by HPLC using a Keystone Hypersil BDS, 250 x 4.6 mm C 18 column. The mobile phase contained 2 % acetonitrile in 30 mM sodium phosphate buffer containing 5 mM heptane sulfonic acid, pH 2.0 and was pumped at 1.0 ml/min. Ganciclovir and internal standard were detected and measured by UV absorbance at 254 nm.
# [3] = in vivo, po; cited from earlier work
# [4] = Determination of oral absorption (bioavailability) in the Cynomolgus monkey; format: in vivo, Male cynomolgus monkeys; conditions: oral gavage dose equimolar to 10 mg/kg ganciclovir, plasma ganciclovir
# Experimental: Male cynomolgus monkeys weighing 5 to 7 kilos were used. The animals were fed monkey chow, fruit and water and maintained on a 12 hour light cycle. The tested compounds were formulated at a concentration equimolar to a 10 mg/ml solution of ganciclovir in saline. The oral formulation was administered by gavage at a rate of 1.0 ml/kg for a final dose equimolar to a 10 mg/kg dose of ganciclovir. The iv formulation of ganciclovir was formulated in saline containing 0.2% HCl at a concentration of 20 mg/ml and administered at a rate of 0.5 ml/kg.
# The animals were fasted beginning the evening prior to dosing and until 4 hr after dosing. […] The blood samples were collected in heparinized syringes and the plasma was immediately isolated by centrifugation and frozen at -20 °C until analysis.
# The bioavailability (F) is calculated according to the equation given in Example 9.
# [5] = relative to acyclovir; cited from earlier work
smiles,measurement,setting,value
"CC(C)[C@H](N)C(=O)OCC(CO)OCn1cnc2c(=O)nc(N)[nH]c21 (stereo partly drawn) [Formula I, 2-(2-amino-1,6-dihydro-6-oxo-purin-9-yl)methoxy-3-hydroxy-1-propanyl-L-valinate]",half-life,[1],less than one
"CC(C)[C@H](N)C(=O)OCC(CO)OCn1cnc2c(=O)[nH]c(N)nc21.Cl (stereo partly drawn) [G-L-valinate hydrochloride, 2-(2-Amino-1,6-dihydro-6-oxo-purin-9-yl)methoxy-3-hydroxy-1-propanyl-L-valinate hydrochloride]",ORAL BIOAVAILABILITY (F %),"[2]; rat, in vivo, 1440 min",98.1%
CCC(=O)OCC(COC(=O)CC)OCn1cnc2c(=O)[nH]c(N)nc21 [G-bis(propionic acid) ester],ORAL BIOAVAILABILITY (F %),"[2]; rat, in vivo, 1440 min",17.7%
same,more bioavailable than ganciclovir itself,[3],about 42%
Nc1nc2c(ncn2COC(COCc2ccccc2)COCc2ccccc2)c(=O)[nH]1 [G-dibenzyl ether],ORAL BIOAVAILABILITY (F %),"[2]; male rats, single po and iv dose equimolar to 10 mg/kg ganciclovir, plasma ganciclovir AUC 0-24 hr",non-detectable
"Nc1nc(O)c2ncn(COC(CO)CO)c2n1 [Ganciclovir, 2-(2-Amino-1,6-dihydro-6-oxo-purin-9-yl)-methoxy-1,3-propanediol]",bioavailability at 24 h,"[2]; rat, plasma, po, 10 mg/kg",7.9%
same,bioavailability,[4],9.9%
NCC(=O)OCCOCn1cnc2c(=O)[nH]c(N)nc21 [glycyl ester of acyclovir],solubility greater than the solubility of acyclovir itself,[5],about 30 fold
